According to patent US20230382925A1, “MODULATORS OF CYSTIC FIBROSIS TRANSMEMBRANE CONDUCTANCE REGULATOR” (VERTEX PHARMACEUTICALS INCORPORATED, priority 2020, published 2023):
Where two headings read alike, the source gives them in different places.

Biological target: CFTR (Homo sapiens, UniProt P13569)
Assay: Membrane Potential Dye, Enteroid Assay B
Type: cell-based
Summary of the method: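 Human intestinal enteroid cells exposed to compound 18-24 h at 37 °C, then loaded with methyl oxonol membrane-potential dye plus CaCC blockers. Chloride transport triggered in chloride-free buffer with 10 μM forskolin, 100 μM IBMX, 300 nM Compound III; fluorescence read 15 min, expressed as % of triple-corrector/potentiator combination control.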

[1] = Table 10, read-out: Ent. B EC50

CFTR, sequence (P13569 with tags, fused parts or gaps DEL508-508): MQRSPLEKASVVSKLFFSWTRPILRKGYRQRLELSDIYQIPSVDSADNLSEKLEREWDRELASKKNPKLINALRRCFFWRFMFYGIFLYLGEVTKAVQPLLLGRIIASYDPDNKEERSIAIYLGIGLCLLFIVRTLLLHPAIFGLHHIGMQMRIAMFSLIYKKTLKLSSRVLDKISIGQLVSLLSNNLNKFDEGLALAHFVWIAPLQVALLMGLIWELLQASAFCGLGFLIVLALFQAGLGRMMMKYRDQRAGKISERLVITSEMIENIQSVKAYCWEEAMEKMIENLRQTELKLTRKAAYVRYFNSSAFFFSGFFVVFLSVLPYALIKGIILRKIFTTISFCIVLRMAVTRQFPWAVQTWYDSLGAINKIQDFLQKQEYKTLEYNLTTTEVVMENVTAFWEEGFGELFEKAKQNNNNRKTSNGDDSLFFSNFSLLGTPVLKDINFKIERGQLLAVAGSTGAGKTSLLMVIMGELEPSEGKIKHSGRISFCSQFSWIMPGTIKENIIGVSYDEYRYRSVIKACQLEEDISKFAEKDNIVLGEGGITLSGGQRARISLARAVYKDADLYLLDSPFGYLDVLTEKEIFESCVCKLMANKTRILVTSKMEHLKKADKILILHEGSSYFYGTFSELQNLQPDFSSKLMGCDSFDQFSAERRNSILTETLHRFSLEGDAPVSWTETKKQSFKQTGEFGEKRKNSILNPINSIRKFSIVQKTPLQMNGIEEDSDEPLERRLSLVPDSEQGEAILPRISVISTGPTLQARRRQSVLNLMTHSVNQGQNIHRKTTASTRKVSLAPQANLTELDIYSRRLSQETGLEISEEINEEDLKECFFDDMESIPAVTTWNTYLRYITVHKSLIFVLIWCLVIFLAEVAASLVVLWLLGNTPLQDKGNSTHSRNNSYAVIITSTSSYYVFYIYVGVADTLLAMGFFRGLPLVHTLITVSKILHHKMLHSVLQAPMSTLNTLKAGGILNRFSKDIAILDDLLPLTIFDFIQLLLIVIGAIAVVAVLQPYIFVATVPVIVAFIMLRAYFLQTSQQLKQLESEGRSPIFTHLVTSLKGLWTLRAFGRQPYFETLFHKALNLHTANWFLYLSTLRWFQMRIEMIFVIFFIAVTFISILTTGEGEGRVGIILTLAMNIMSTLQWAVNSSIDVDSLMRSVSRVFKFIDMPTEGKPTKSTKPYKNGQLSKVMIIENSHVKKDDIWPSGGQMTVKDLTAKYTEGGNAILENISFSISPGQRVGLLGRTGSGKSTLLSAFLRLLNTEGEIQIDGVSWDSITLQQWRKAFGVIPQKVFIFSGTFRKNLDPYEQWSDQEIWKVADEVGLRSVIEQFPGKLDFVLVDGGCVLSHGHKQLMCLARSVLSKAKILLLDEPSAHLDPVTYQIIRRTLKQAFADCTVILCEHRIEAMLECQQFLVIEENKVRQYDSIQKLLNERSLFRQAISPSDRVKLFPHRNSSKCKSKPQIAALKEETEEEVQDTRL

| Ent. B Max Activity (%) (Table 9) | EC50 (Table 9, read-out: Ent. B EC50) [µM] | Ent. B Max Activity (%) (Table 10) | EC50 [1] [µM] | Structure (SMILES) | other results |
| --- | --- | --- | --- | --- | --- |
| +++ (+++ is >60%) | < 1 | – | – | COCCNC1CC2(C1)CC(N1C(=O)c3cccc(c3)S(=O)(=O)Nc3nc(cc(-c4c(C)cccc4C)n3)OC[C@H]1CC(C)C)C2 (stereo in doubt) [Compound 287] | – |
| – | – | +++ (+++ is >60%) | < 1 | CNC(=O)C1CC2(C1)CC(N1C(=O)c3cccc(c3)S(=O)(=O)Nc3nc(cc(-c4c(C)cccc4C)n3)OC[C@H]1CC(C)(C)C)C2 (some centres unmarked) [Compound 234] | – |
| – | – | +++ (+++ is >60%) | < 1 | [H][C@]1(N2C(=O)c3cccc(c3)S(=O)(=O)Nc3nc(cc(-c4c(C)cccc4C)n3)OC[C@H]2CCC(C)C)C[C@@]2(C[C@H](C(C)(C)O)C2)C1 (single isomer, unassigned) [Compound 5] | – |
| +++ (+++ is >60%) | < 1 | – | – | [H][C@]1(N2C(=O)c3cccc(c3)S(=O)(=O)Nc3nc(cc(-c4c(C)cccc4C)n3)OC[C@H]2CC(C)C)C[C@@]2(C[C@H](N(C)CCOC)C2)C1 (some centres unmarked) [Compound 285] | – |
| – | – | +++ (+++ is >60%) | < 1 | Cc1cccc(C)c1-c1cc2nc(n1)NS(=O)(=O)c1cccc(c1)C(=O)N(C1CC(CO)(C(C)(C)O)C1)[C@H](CC(C)(C)C)CO2 (single isomer, unassigned) [Compound 160] | – |
| – | – | +++ (+++ is >60%) | < 1 | Cc1cccc(C)c1-c1cc2nc(n1)NS(=O)(=O)c1cccc(c1)C(=O)N(C1CC3(C1)CC(C)(O)C3)[C@H](CC(C)(C)C)CO2 (single isomer, unassigned) [Compound 119] | – |
| ++ (++ is 30-60%) | < 1 | – | – | Cc1cccc(C)c1-c1cc2nc(n1)NS(=O)(=O)c1cccc(c1)C(=O)N(C1CC3(CCN(CCO)CC3)C1)[C@H](CC(C)C)CO2 [Compound 289] | – |
| – | – | ++ (++ is 30-60%) | < 1 | Cc1cccc(C)c1-c1cc2nc(n1)NS(=O)(=O)c1cccc(c1)C(=O)N(C1CC(N)C1)[C@H](CC(C)(C)C)CO2 (single isomer, unassigned) [Compound 166] | – |
| ++ (++ is 30-60%) | < 1 | – | – | Cc1cccc(C)c1-c1cc2nc(n1)NS(=O)(=O)c1cccc(c1)C(=O)N([C@H]1CC3(C[C@H](N(C)C(=O)OC(C)C)C3)C1)[C@H](CC(C)C)CO2 (some centres unmarked) [Compound 283] | – |
| – | – | ++ (++ is 30-60%) | < 1 | COC(=O)N(C)C1CC2(C1)CC(N1C(=O)c3cccc(c3)S(=O)(=O)Nc3nc(cc(-c4c(C)cccc4C)n3)OC[C@H]1CC(C)(C)C)C2 (stereo partly drawn) [Compound 94, Methyl ((2R,4r,6R)-6-((R)-1^6-(2,6-dimethylphenyl)-7-neopentyl-3,3-dioxido-5-oxo-9-oxa-3-thia-2,6-diaza-1(2,4)-pyrimidina-4(1,3)-benzenacyclononaphane-6-yl)spiro[3.3]heptan-2-yl)(methyl)carbamate] | – |
| – | – | ++ (++ is 30-60%) | < 1 | Cc1cccc(C)c1-c1cc2nc(n1)NS(=O)(=O)c1cccc(c1)C(=O)N(C1CC3(CCNC(=O)C3)C1)[C@H](CC(C)C)CO2 (some centres unmarked) [Compound 200] | – |

Further lines, the compound ahead of its results:

| Structure (SMILES) | Ent. B Max Activity (%) (Table 9) | EC50 (Table 9, read-out: Ent. B EC50) [µM] | Ent. B Max Activity (%) (Table 10) | EC50 [1] [µM] | other results |
| --- | --- | --- | --- | --- | --- |
| Cc1cccc(C)c1-c1cc2nc(n1)NS(=O)(=O)c1cccc(c1)C(=O)N(C1CC3(CCN(C(=O)N(C)C)CC3)C1)[C@H](CC(C)C)CO2 [Compound 26, 2-[(11R)-6-(2,6-Dimethylphenyl)-11-isobutyl-2,2,13-trioxo-9-oxa-2λ^6-thia-3,5,12,19-tetrazatricyclo[12.3.1.14,8]nonadeca-1(18),4(19),5,7,14,16-hexaen-12-yl]-N,N-dimethyl-7-azaspiro[3.5]nonane-7-carboxamide] | +++ (+++ is >60%) | < 1 | – | – | – |
| Cc1cccc(C)c1-c1cc2nc(n1)NS(=O)(=O)c1cccc(c1)C(=O)N(C1CC3(CC3)C1)C(CC(C)(C)C(F)(F)F)CO2 (centres unmarked) [Compound 217] | – | – | – | – | Ent. B Max Activity (%): +++ (+++ is >60%); EC50 (read-out: Ent. B EC50): < 1 µM |
| COC(=O)N(C)C1CC(N2C(=O)c3cccc(c3)S(=O)(=O)Nc3nc(cc(-c4c(C)cccc4C)n3)OC[C@H]2CC(C)(C)C)C1 (single isomer, unassigned) [Compound 169] | – | – | +++ (+++ is >60%) | < 1 | – |
| Cc1cccc(C)c1-c1cc2nc(n1)NS(=O)(=O)c1cccc(c1)C(=O)N([C@H]1C[C@@H](N3C[C@@H](O)CC3=O)C1)[C@H](CC(C)C)CO2 (stereo in doubt) [Compound 370] | – | – | ++ (++ is 30-60%) | < 1 | – |
| Cc1cccc(C)c1-c1cc2nc(n1)NS(=O)(=O)c1cccc(c1)C(=O)N([C@H]1C[C@](C)(NC(=O)OC(C)C)C1)[C@H](CC(C)(C)C)CO2 (stereo in doubt) [Compound 244] | – | – | ++ (++ is 30-60%) | < 1 | – |
| Cc1cccc(C)c1-c1cc2nc(n1)NS(=O)(=O)c1cccc(c1)C(=O)N([C@H]1C[C@]3(C[C@H](NC(=O)C(C)C)C3)C1)[C@H](CC1(C(F)(F)F)CC1)CO2 (some centres unmarked) [Compound 246] | – | – | +++ (+++ is >60%) | < 1 | – |
| Cc1cccc(C)c1-c1cc2nc(n1)NS(=O)(=O)c1cccc(c1)C(=O)N(C1CCN(C(=O)OC(C)C)C1)[C@H](CC(C)C)CO2 (single isomer, unassigned) [Compound 39] | – | – | – | – | Ent. B Max Activity (%): +++ (+++ is >60%); EC50 (read-out: Ent. B EC50): < 1 µM |
| Cc1cccc(C)c1-c1cc2nc(n1)NS(=O)(=O)c1cccc(c1)C(=O)N(C1CCN(C)CC1)CC(CC(C)C)CO2 (centres unmarked) [Compound 441] | +++ (+++ is >60%) | < 1 | – | – | – |
| Cc1cccc(C)c1-c1cc2nc(n1)NS(=O)(=O)c1cccc(c1)C(=O)N([C@H]1C[C@H](N)C1)[C@H](CC1(C(F)(F)F)CC1)CO2 (single isomer, unassigned) [Compound 57] | +++ (+++ is >60%) | < 1 | – | – | – |
| Cc1cccc(C)c1-c1cc2nc(n1)NS(=O)(=O)c1cccc(c1)C(=O)N([C@H]1C[C@@H](N)C1)[C@H](CC1(C(F)(F)F)CC1)CO2 (single isomer, unassigned) [Compound 56] | +++ (+++ is >60%) | < 1 | – | – | – |
| Cc1cccc(C)c1-c1cc2nc(n1)NS(=O)(=O)c1cccc(c1)C(=O)N([C@H]1C[C@@H](N(C)C)C1)[C@H](CC(C)C)CO2 [Compound 302] | – | – | – | – | Ent. B Max Activity (%): +++ (+++ is >60%); EC50 (read-out: Ent. B EC50): < 1 µM |
| COC(=O)N[C@H]1CC2(C1)C[C@H](N1C(=O)c3cccc(c3)S(=O)(=O)Nc3nc(cc(-c4c(C)cccc4C)n3)OC[C@H]1CC(C)C)C2 (some centres unmarked) [Compound 304] | – | – | – | – | Ent. B Max Activity (%): +++ (+++ is >60%); EC50 (read-out: Ent. B EC50): < 1 µM |
| CC(=O)N[C@H]1C[C@@H](N2C(=O)c3cccc(c3)S(=O)(=O)Nc3nc(cc(-c4c(C)cccc4C)n3)OC[C@H]2CC(C)C)C1 [Compound 366] | +++ (+++ is >60%) | < 1 | – | – | – |
| COC(=O)N[C@H]1CC2(C1)C[C@H](N1C(=O)c3cccc(c3)S(=O)(=O)Nc3nc(cc(-c4c(C)cccc4C)n3)OC[C@H]1CC1(C(F)(F)F)CC1)C2 (some centres unmarked) [Compound 274] | +++ (+++ is >60%) | < 1 | – | – | – |
| Cc1cccc(C)c1-c1cc2nc(n1)NS(=O)(=O)c1cccc(c1)C(=O)N(c1cnn(C)c1)[C@H](CC(C)C)CO2 [Compound 97, (11R)-6-(2,6-Dimethylphenyl)-11-isobutyl-12-(1-methylpyrazol-4-yl)-2,2-dioxo-9-oxa-2λ^6-thia-3,5,12,19-tetrazatricyclo[12.3.1.14,8]nonadeca-1(18),4(19),5,7,14,16-hexaen-13-one] | – | – | +++ (+++ is >60%) | < 1 | – |
| Cc1cccc(C)c1-c1cc2nc(n1)NS(=O)(=O)c1cccc(c1)C(=O)N(C1CC(NC(=O)OC(C)(C)C)C1)[C@H](CC(C)(C)C(F)(F)F)CO2 (single isomer, unassigned) [Compound 194] | +++ (+++ is >60%) | < 1 | – | – | – |
| Cc1cccc(C)c1-c1cc2nc(n1)NS(=O)(=O)c1cccc(n1)C(=O)N(C1CC3(CC(C(=O)N(C)C)C3)C1)[C@H](CC(C)(C)C)CO2 (some centres unmarked) [Compound 415] | – | – | +++ (+++ is >60%) | < 1 | – |
| Cc1cccc(C)c1-c1cc2nc(n1)NS(=O)(=O)c1cccc(c1)C(=O)N([C@H]1C[C@@]3(C[C@@H](N)C3)C1)[C@H](CC1(C(F)(F)F)CC1)CO2 (stereo partly drawn) [Compound 81, (R)-6-((2R,4r,6R)-6-Aminospiro[3.3]heptan-2-yl)-1^6-(2,6-dimethylphenyl)-7-((1-(trifluoromethyl)cyclopropyl)methyl)-9-oxa-3-thia-2,6-diaza-1(2,4)-pyrimidina-4(1,3)-benzenacyclononaphan-5-one 3,3-dioxide] | +++ (+++ is >60%) | < 1 | – | – | – |
| Cc1cccc(C)c1-c1cc2nc(n1)NS(=O)(=O)c1cccc(c1)C(=O)N(C1CC3(C1)CN(C(C)C)C3)[C@H](CC(C)C)CO2 [Compound 103, (11R)-6-(2,6-Dimethylphenyl)-11-isobutyl-12-(2-isopropyl-2-azaspiro[3.3]heptan-6-yl)-2,2-dioxo-9-oxa-2λ^6-thia-3,5,12,19-tetrazatricyclo[12.3.1.14,8]nonadeca-1(18),4(19),5,7,14,16-hexaen-13-one] | – | – | – | – | Ent. B Max Activity (%): +++ (+++ is >60%); EC50 (read-out: Ent. B EC50): < 1 µM |
| Cc1cccc(C)c1-c1cc2nc(n1)NS(=O)(=O)c1cccc(c1)C(=O)N(C1CC(N(C)[C@H](C)C(F)(F)F)C1)[C@H](CC(C)C)CO2 (stereo partly drawn) [Compound 68, (11R)-6-(2,6-Dimethylphenyl)-11-isobutyl-12-[3-[methyl-[(1R)-2,2,2-trifluoro-1-methyl-ethyl]amino]cyclobutyl]-2,2-dioxo-9-oxa-2λ^6-thia-3,5,12,19-tetrazatricyclo[12.3.1.14,8]nonadeca-1(18),4(19),5,7,14,16-hexaen-13-one] | ++ (++ is 30-60%) | < 1 | – | – | – |
